Data reported in patent US20030022812A1, “Treating pain by targeting hyperpolarization-activated, cyclic nucleotide-gated channels” (priority 2001, published 2003).
“Also recorded” adds a separate entry of the source.

Legend:
human HCN1 = biological target: T1, human HCN1 (Homo sapiens, UniProt O60741); assay: Two-electrode voltage clamp of Xenopus oocytes injected with human HCN1 cRNA; assay type: cell-based; conditions: Cs+ 3 mM; for block of HCN1 currents: n=3
T1 construct: expressed in transfected cells; host or cells: Xenopus laevis oocytes injected with cRNA transcribed from pGEMHE-human HCN1
T1 sequence (O60741 1-890): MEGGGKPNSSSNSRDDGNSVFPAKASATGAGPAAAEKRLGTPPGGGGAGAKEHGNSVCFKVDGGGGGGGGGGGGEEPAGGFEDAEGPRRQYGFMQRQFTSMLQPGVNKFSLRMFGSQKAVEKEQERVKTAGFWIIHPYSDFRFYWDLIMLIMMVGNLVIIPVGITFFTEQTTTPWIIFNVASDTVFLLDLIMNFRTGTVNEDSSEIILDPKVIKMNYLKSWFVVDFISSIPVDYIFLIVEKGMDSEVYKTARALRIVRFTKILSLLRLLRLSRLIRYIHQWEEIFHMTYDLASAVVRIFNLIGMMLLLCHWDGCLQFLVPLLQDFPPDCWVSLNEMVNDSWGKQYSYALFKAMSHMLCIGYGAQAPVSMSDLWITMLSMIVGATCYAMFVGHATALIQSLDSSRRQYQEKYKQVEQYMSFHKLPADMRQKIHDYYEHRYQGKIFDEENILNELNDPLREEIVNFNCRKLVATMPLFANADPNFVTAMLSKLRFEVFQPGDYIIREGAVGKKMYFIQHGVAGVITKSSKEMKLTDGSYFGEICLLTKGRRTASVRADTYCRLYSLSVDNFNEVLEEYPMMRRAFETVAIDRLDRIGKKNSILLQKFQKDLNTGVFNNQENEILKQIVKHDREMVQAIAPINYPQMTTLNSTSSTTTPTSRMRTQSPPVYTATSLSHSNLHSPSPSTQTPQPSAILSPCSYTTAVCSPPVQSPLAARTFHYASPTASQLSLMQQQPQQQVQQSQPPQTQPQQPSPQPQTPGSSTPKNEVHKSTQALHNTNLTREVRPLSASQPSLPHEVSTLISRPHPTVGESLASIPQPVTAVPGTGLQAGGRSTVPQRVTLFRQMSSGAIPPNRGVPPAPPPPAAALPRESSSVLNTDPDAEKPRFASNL
Description: Xenopus laevis oocytes were prepared and injected using standard methods previously described and known in the art [Fraser et al. (1993). Electrophysiology: a practical approach. D. I. Wallis, IRL Press at Oxford University Press, Oxford: 65-86]. Ovarian lobes from adult female Xenopus laevis (Nasco, Fort Atkinson, Wis.) were teased apart, rinsed several times in nominally Ca-free saline containing: 82.5 mM NaCl, 2.5 mM KCl, 1 mM MgCl2, 5 mM HEPES, adjusted to pH 7.0 with NaOH (OR-2), and gently shaken in OR-2 containing 0.2% collagenase Type 1 (ICN Biomedicals, Aurora, Ohio) for 2-5 hours. When approximately 50% of the follicular layers were removed, Stage V and VI oocytes were selected and rinsed in media consisting of 75% OR-2 and 25% ND-96. The ND-96 contained: 100 mM NaCl, 2 mM KCl, 1 mM MgCl2, 1.8 mM CaCl2, 5 mM HEPES, 2.5 mM Na pyruvate, gentamicin (50 ug/ml), adjusted to pH 7.0 with NaOH. […] For in vitro transcription, PGEM HE (Liman et al., (1992) Neuron 9: 861-71) containing human HCN1 was linearized with NheI and transcribed with T7 RNA polymerase (Promega) in the presence of the cap analog m7G(5′)ppp(5′)G. The synthesized cRNA was precipitated with ammonium acetate and isopropanol, and resuspended in 50 μl nuclease-free water. cRNA was quantified using formaldehyde gels (1% agarose, 1×MOPS, 3% formaldehyde) against 1,2 and 5 μl RNA markers (Gibco BRL, 0.24-9.5 Kb).
Oocytes were injected with 50 nl of human HCN1 RNA (1-10 ng). Control oocytes were injected with 50 nl of water. Oocytes were incubated for 2 days in ND-96 before analysis for expression of human HCN1. Incubations and collagenase digestion were carried out at room temperature. Injected oocytes were maintained in 48 well cell culture clusters (Costar; Cambridge, Mass.) at 18° C. Whole cell voltage-activated currents were measured 2 days after injection with a conventional two-electrode voltage clamp (GeneClamp500, Axon Instruments, Foster City, Calif.) using standard methods previously described and known in the art (Dascal et al., (1987) Pflugers Arch 409: 512-20). The microelectrodes, which had resistances of ˜1 MΩ, were filled with 3 M KCl. Cells were continuously perfused with ND96 at ˜10 ml/min at room temperature. Membrane voltage was clamped at −30 mV unless indicated.
Oocytes were challenged with a series of hyperpolarizing voltage steps from a holding potential of −30 mV. Voltage steps (800 msec duration) to −40 through −180 mV in 20 mV intervals were applied to oocytes at a sampling rate of […]. Hyperpolarizing voltage steps activated an inward current having a threshold of about −60 mV. […] Cs^+ blocked HCN1 currents by 94, 92 and 90% when Ih was evoked by stepping to −80, −100 and −120 mV, respectively. […]

normal rats = assay: 55° C. hot plate test of acute thermally-evoked pain; assay type: in vivo, rat; conditions: 10 mg/kg i.p.
Description: A cutoff of 20 seconds of thermal surface exposure was employed to prevent tissue damage. Drug administration: Normal rats were administered ZD7288, 10 mg/kg, or an equivalent volume of saline, i.p. at time 0. Behavioral assessments were performed at 45, 60 and 75 minutes after drug administration.

CFA-injected rats = assay: Tactile allodynia (von Frey) in complete Freund's adjuvant (CFA) paw model of inflammatory pain; assay type: in vivo, rat; conditions: i.p.; ZD7288 10 mg/kg, ibuprofen 30 mg/kg, morphine 3 mg/kg, gabapentin 100 mg/kg
[1] = test system: rat complete Freund's adjuvant (CFA) model of hindpaw inflammation; assay: Thermal hyperalgesia (modified Hargreaves apparatus) in rat CFA model of hindpaw inflammation; assay type: in vivo; conditions: 10 mg/kg i.p.
Description: (§1) However, blockade of HCN channels with ZD7288 at 10 mg/kg, i.p., had no effect on thermal hyperalgesia (measured using a modified Hargreaves apparatus) in two different models of inflammatory pain: the rat carrageenan model of hindpaw inflammation, and the rat complete Freund's adjuvant (CFA) model of hindpaw inflammation. As shown supra, HCN blockade also had little effect on acute thermally evoked pain in the hot plate test.

[2] = test system: rat carrageenan model of hindpaw inflammation; assay: Thermal hyperalgesia (modified Hargreaves apparatus) in rat carrageenan model of hindpaw inflammation; assay type: in vivo; conditions: 10 mg/kg i.p.
Description: as §1

[3] = test system: rat mild thermal injury model; assay: Spontaneous pain behaviors in rat mild thermal injury (first-degree burn) model; assay type: in vivo; conditions: 30 and 60 min after i.p. administration

Row | Structure (SMILES) | effect on endogenous oocyte inward currents (human HCN1) | block of HCN1 currents (human HCN1; Ih evoked by stepping to −80 mV) | block of HCN1 currents (human HCN1; Ih evoked by stepping to −100 mV) | block of HCN1 currents (human HCN1; Ih evoked by stepping to −120 mV) | effect on acute thermally-evoked pain (normal rats) | hot plate latency, difference versus saline (normal rats; 45 or 60 min) | hot plate latency, difference versus saline (normal rats; 75 min) | suppression of CFA-induced tactile allodynia (CFA-injected rats) | effect on thermal hyperalgesia [1] | effect on thermal hyperalgesia [2] | suppression of spontaneous pain behaviors [3]
1 | [Cl-].[Cs+] [Cs^+, CsCl] | no effect | 94% | 92% | 90% |  |  |  |  |  |  | 
2 | CCN(c1ccccc1)c1cc(=NC)n(C)c(C)n1.Cl [ZD7288] |  |  |  |  | minimal effect | No statistically significant difference | approximately 15% | suppressed allodynia; also recorded: markedly suppressed | no effect | no effect | near complete suppression
